Data as given in patent US9801908B2, “Treatment for chitin-containing microorganisms” (BENCHMARK ANIMAL HEALTH LIMITED, priority 2013, dated 2017).
Like-named read-outs stand apart in the source and are kept apart here.

What was measured:
[1] = system: Atlantic salmon eyed eggs; settings: in vivo
[2] = system: Saprolegnia hyphae/mycelium
Method: The plates were observed microscopically to confirm the attachment of the spores to the sesame seeds and the presence of the early growing mycelia. BA was added at 12 h post infection of the sesame seeds at the same concentrations mentioned above to all tested plates except controls. Plates were incubated further at 20° C. SAW was used as non-treated control and bronopol as positive control. Plates were inspected microscopically after 24 h for advanced mycelial growth.

Saprolegnia spores [3] = settings: BA 0.5 g/L continuous, yolk sac fry, natural outbreak
Text: The safety of continuous exposure of salmon fry to a low concentration of BA (0.5 g/L) was also investigated to understand what extent BA will protect Atlantic salmon fry from becoming infected by Saprolegnia spores during a natural outbreak of saprolegniosis in the aquarium.

[4] = system: Saprolegnia spores (S. diclina VIO 2739, S. parasitica VIO 2741, aquarium water); settings: BA 1-4 g/L, 4 hours/day, 14 days
Method: The ability of BA to protect dead eggs from becoming infected with Saprolegnia spores was investigated. The rationale is that dead eggs may be the first to get infected under natural conditions and act as a source of infection for live eggs. Combined treatment of BA and PA was also tested.
Five egg groups were used, each group divided equally into 3 smaller sub-groups. 25 live eggs plus 5 dead ones were placed in each of the sub-groups (90 eggs per group). […] In the groups, eggs were supplied with continuous slow water flow of 1 L/min. The aquarium water at the facilities of the Norwegian Veterinary Institute/Norwegian School of Veterinary Science contains Saprolegnia zoospores and was used as source of infection. […] Treatment with BA was carried out as follows. The water flow was stopped and each group, except the non-treated control group, was treated with BA at concentrations of 1, 2, 3, and 4 g/L. The treatment period was 4 hours/day after which water flow was resumed. Dead eggs were inspected daily over 14 days for their colonization with Saprolegnia spores and the presence of growing hypha. Number of dead eggs per group and hatching rates were recorded.

Saprolegnia spores [5] = experiment: Germination and colonization of Saprolegnia spores on sesame seeds; assay type: cell-based, Saprolegnia parasitica; design: key to grade of germination and colonization of Saprolegnia spores on sesame seeds: Grade 0: no germination no growing mycelia on the sesame seeds; Grade 1: germinating spores no growing mycelia on the sesame seeds; Grade 2: germinating spores very few growing mycelia on the sesame seeds; Grade 3: germinating spores profuse growing mycelia on the sesame seeds; settings: for grade of germination and colonization of Saprolegnia spores on sesame seeds: 48 hours incubation
Method: BA was diluted to desired concentration in Sterilized Aquarium Water (SAW). […] Saprolegnia zoospores were produced according to the method described previously by Stueland et al. […] Sterilized aquarium water (SAW) was used as a non-treated control and bronopol (Pyceze Vet.® 500 g bronopol/L) was used as a positive control. Each BA concentration and controls were tested in triplicates and incubated at 20° C. 24 hours later, plates were examined microscopically.

Saprolegnia sp. = settings: 4 h once a day
Method: The experimental design was as described in experiment 1 with the same number of eggs per replicate (N=27±2) and the number of infected eggs introduced per replicate (3 per 27 eggs). The difference was that the eggs were exposed to higher BA concentrations (1, 2, 3, 4 g/L) for 4 h once a day over the course of the experiment which lasted for 14 days in total. After 4 h of treatment the flow of aquarium water was resumed. The same treatment was applied 24 h later and every day up to 14 days. The time between treatments was the same throughout the experiment. The number of dead eggs, presence or absence of infection and hatching rates were recorded over the duration of the experiment.
Infected dead eggs that were used as source of infection in the BA treated groups and the non-treated control were examined microscopically to observe the effect of BA treatment on the growing mycelia.

[6] = system: Saprolegnia spores and zoosporangia
Method: At indicated time points BA was replaced with SAW. The ability of treated spores to germinate and colonize sesame seeds was recorded 24 h following the treatment removal. Treated zoosporangia were also examined for their ability to release spore. Spores and zoosporangia in SAW were used as a non-treated control. Results were confirmed with fluorescent microscopy using SYTO 9 dye (Invitrogen®) 5 mM solution in DMSO.

[7] = treated 96 h in BA, then 24 h in SAW

For `OB(O)O` [boric acid], the “impact on hatchability and viability of eggs or fry” value [1] was “no negative impact”, the “production and release of zoospores from young zoosporangia” value (Saprolegnia zoosporangia; 1 g/L BA, 12 and 24 h) was “interferes with the production and subsequent release of zoospores” and the “sign observed in zoosporangia after treatment” value (Saprolegnia zoosporangia; 1 g/L BA, 12 and 24 h) was “Vacuolation of the entire of zoosporangia”. For the same compound, the “spore production and release from zoosporangia (FIG. 2 b2)” value (Saprolegnia zoosporangia; 24 hours exposure to boric acid) was “absence of spore production and release”, the hyphael growth grade ([2]; BA 0.5 g/L and below) was “grade 1” and the mycelia growth ([2]; BA above 0.5 g/L) was “no further growth”. The “fry mortality rates compared to non-treated control” value (Saprolegnia spores [3]) was “Significant reduction”, the “attachment between dead and live eggs” value [4] was “no attachment” and the “hyphal growth on dead eggs” value [4] was “No hyphal growth”. The “grade of germination and colonization of Saprolegnia spores on sesame seeds” value (shortened to “grade … on sesame seeds”) (Saprolegnia spores [5]; "boric acid g/L" (concentration not given)) was “Grade 0”, the “germination of inoculated Saprolegnia spores” value (Saprolegnia spores [5]; BA 1 g/L and above) was “did not germinate” and the “germination and colonization of sesame seeds by Saprolegnia spores” value (Saprolegnia spores [5]; BA below 0.2 g/L) was “germinated and colonized sesame seeds”. For the same compound, the “growth rate compared to the non-treated control” value (Saprolegnia spores [5]; BA below 0.2 g/L) was “slow”, the “grade … on sesame seeds” value (Saprolegnia spores [5]; boric acid 0.2-0.4 g/L) was “Grade 2” and the “grade … on sesame seeds” value (Saprolegnia spores [5]; boric acid 0.5-0.9 g/L) was “Grade 1”. For the same compound, the “grade … on sesame seeds” value (Saprolegnia spores [5]; boric acid <0.2 g/L) was “Grade 3”, the “hyphal attachment between infected dead and live eggs” value (Saprolegnia sp.; BA 1, 2, 3 or 4 g/L, 14 days) was “No hyphal attachment” and the “mycelium on dead eggs used as source of infection” value (Saprolegnia sp.; all treated groups, BA 1-4 g/L) was “scanty attachment of mycelium”. The “spore release of zoosporangia 24 h after exposure terminated” value ([6]; BA 1 g/L for 12 h) was “showed spore release”, the “spore release of zoosporangia 24 h after exposure terminated” value ([6]; BA 1 g/L for 24 h) was “showed spore release” and the “spore release of zoosporangia after exposure terminated” value ([6]; BA 1 g/L for 72 h) was “no spore release”. The “spore release of zoosporangia after exposure terminated” value ([6]; BA 1 g/L for 96 h) was “no spore release”, the “colonization of seeds (FIG. 3c-1)” value ([6]; treated 24 h with BA, then 24 h in SAW) was “Thin hyphae can be seen projecting out from seeds” and the “appearance of zoosporangium (FIG. 3d-2)” value [6, 7] was “condensed staining and a thin wall”. The “colonization of seeds (FIG. 3d)” value [6, 7] was “no colonization on seeds”.
In the case of `O=[N+]([O-])C(Br)(CO)CO` [bronopol, reference compound], the mortality of eggs ([1]; Atlantic salmon, 2 h) is reported as 100% and the “grade … on sesame seeds” value (Saprolegnia spores [5]; positive control (Pyceze Vet. 500 g bronopol/L)) is reported as “Grade 0”.
